The source of these data is US12653827B2, “Methods of treating indolent systemic mastocytosis” (Telios Pharma Inc., priority 2024, dated 2026).

The test system of one series is basophils. Nature of the series: Comparison of BTK inhibitors by BAT (CD63 and CD203c). The format is cell-based, human. The conditions noted are these: concentration of 1 μM; 2 hours; blood from a healthy donor. How it is done:
The BAT assay using the Flow Cast Basophil Activation Kit (Buhlmann Diagnostics; Catalog #B-CCR-STCON) was then conducted following manufacturer instructions by (1) stimulating the blood with anti-FcεR stimulation control in stimulation buffer with IL-3 and staining cells for CCR3 and CD63 for 15 minutes at 37° C., (2) lysing red blood cells and fixing cells with Lysing Reagent at room temperature for 10 minutes, (3) washing cells with Wash Buffer, and (4) acquiring data on a flow cytometer. Activated basophils were defined as CCR3+, low side scatter and CD63+. Percent of activated basophils was calculated as number of activated basophils over the total number of basophils. A four-parameter logistic regression was applied to determine the EC50 and EC90.
Blood samples were gently rocked at room temperature for 2 hours. […] Activated basophils were also defined as CCR3+, low side scatter and CD203c+.

The subject of the next series is mast cells. Put plainly: Phosphorylation and degranulation markers in antigen-stimulated mast cells grown with chronic SCF (FIG. 21). As to conditions: 1 μM, antigen 15 minutes. Format: cell-based. How it is done: Histamine release, CD63 expression, CD203c expression, pBTK (Y223) levels, pP38 (T180/Y182) levels, pPLCg1 (S1248) levels, pERK (T202/Y204) levels, and pS6 (S235/236) levels are shown. Mast cells were grown with continuous (chronic) exposure to SCF and then stimulated with antigen (Ag) for 15 minutes, leading to phosphorylation of multiple kinases, including pBTK, pPLCγ1, pP38, pERK, and pS6 ribosome. This stimulation increases degranulation markers, including CD63, CD203c, and histamine release.

The conditions of series [1]: ISM patients, cited from earlier work.
The conditions of series [2]: cited from earlier work.

Regarding `CC#CC(=O)N1CCC[C@H]1c1nc(-c2ccc(C(=O)Nc3ccccn3)cc2)c2c(N)nccn12` [acalabrutinib, (S)-4-(8-amino-3-(1-(but-2-ynoyl)pyrrolidin-2-yl)imidazo[1,5-a]pyrazin-1-yl)-N-(pyridin-2-yl)benzamide, reference compound], the “effect on basophil activation (CD63+, CD203c+)” value with basophils is listed as “no effect on basophil activation”.
In the case of `Cn1cc(-c2cc3c(N4CCN(c5ncc([C@@](C)(N)c6ccc(F)cc6)cn5)CC4)ncnn3c2)cn1` [avapritinib], the “phosphorylation and degranulation (activation)” value in the series on mast cells was “only partially inhibits activation”. Also, the “reduction of total symptom score compared to the placebo” value in series [1] (25 mg QD, Week 24, ISM-SAF survey) is listed as 5.7 points. The “adverse reactions leading to dose interruptions” value in series [1] (25 mg QD) is reported as 5%. Also, the “treated subjects who failed to achieve a mean symptom score reduction of 30%” value in series [1] (first 6 months of treatment) was “approximately half”. Further, the “subjects who achieved a 50% symptom score reduction” value in series [1] (within the first 6 months of treatment) was “about a third”.
Take `Cc1nc(Nc2ncc(C(=O)Nc3c(C)cccc3Cl)s2)cc(N2CCN(CCO)CC2)n1` [dasatinib]: the “subjects who discontinued treatment due to toxicity” value in series [2] (overall, AdvSM and ISM subjects) is on record as 34%. Moreover, in series [2] (patients overall), the “pleural effusion, grade 3 adverse event” value is reported as 10%.
